Publication PMC4785407, “Reduction Impairs the Antibacterial Activity but Benefits the LPS Neutralization Ability of Human Enteric Defensin 5” (Scientific Reports, 2016)
Ends that are not written are not given here.

Tests used:
bacteria = conditions: cited from earlier work
Source text: Oxidized human defensin 5 (HD5OX), a 32-residue α defensin, is stored in the secretory granules of Paneth cells in the small intestine as a propeptide (E20-R94) and is processed by anionic and/or meso isoforms of trypsin during secretion or shortly thereafter at a cleavage site between R62 and A63[6]. […] We have previously prepared bioactive HD5OX using Pichia pastoris and design ... || HD5OX is an endogenous bactericidal agent.

[1] = test system: LPS-binding protein (LBP); LPS-stimulated macrophages; conditions: cited from earlier work
Source text: Human defensins are also noted for their immunoregulatory properties. […] Additionally, some defensins are able to suppress the pro-inflammatory effect of bacterial lipopolysaccharide (LPS). For example, H ...

[2] = flexible N-terminus; cited from earlier work
Source text: Changes in function follow changes in structure.

[3] = test system: interaction between LPS and LBP (mouse LBP); assay: LPS-binding protein (LBP) block assay; type: biochemical; conditions: 200 ng/mL, positive control; mouse LBP 60 ng/mL, biotinylated LPS 50 ng/mL
Method: The effects of peptides on the interaction between LPS and low concentrations of LBP were determined as previously described. Briefly, the plates of a LBP ELISA kit (Boster EK1274) were blocked by the incubation of 1% BSA prepared in 10 mM sodium phosphate buffer (pH 7.4) at 37 °C for 1 h, which were subsequently washed with 0.1% Tween-20. Aliquots of 100 μL of mouse LBP (Sigma SRP6034, 60 ng/mL) were added and incubated at 37 °C for 1.5 h. Peptides were prepared in sterile water, with concentrations of 12.5, 25, and 50 μg/mL, respectively. Biotinylated LPS (50 ng/mL) was added in the absence or presence of peptides (pre-incubated at 37 °C for 30 min). Polymyxin B (200 ng/mL) was used as a positive control. The binding of LPS to LBP was determined using a chromogenic reaction between HRP-conjugated streptavidin (Boster BA1088) and TMB (Sigma 860336). Data were processed by subtracting the absorbance in the absence of LPS. Statistical significance was determined by the Student−Newman−Keuls multiple comparisons test.
Figure 5. The efficiencies of peptides in blocking the interaction between LPS and LBP. A LBP ELISA plate was blocked by 1% BSA and subsequently washed with 0.1% Tween-20. Aliquots of 100 μL of the mouse LBP (60 ng/mL) was added and incubated at 37°C for 1.5 h. Peptides were prepared in sterile water, with concentrations of 12.5, 25, and 50 μg/mL, respectively. Biotinylated LPS (50 ng/mL) was then added in the absence or presence of peptides (pre-incubated at 37°C for 30 min). Data were processed by subtracting the absorbance in the absence of biotinylated LPS. Statistical significance was determined by the Student−Newman−Keuls multiple comparisons test. n.s, not significant; **, p < 0.01, relative to the value of the group solely treated with LPS.

human β defensin (HBD) 1 (DHYNCVSSGGQCLYSACPIFTKIQGTCYRGKAKCCK; ends and bridges not checked; cysteine pairing not given here; UniProt P60022 33-68, looked up) [HBD1, ubiquitously expressed peptide in human epithelia]
antibacterial activity upon reduction (bacteria; disulfide reduction): enhanced upon reduction | interaction between LPS and low concentrations of LBP; TNF-α production [1]: can block the interaction between LPS and low concentrations of LPS-binding protein

HNP1: human neutrophil peptide cited from the literature
antibacterial property on loss of disulfide bonds (bacteria): loss of disulfide bonds attenuates the antibacterial property | interaction between LPS and low concentrations of LBP; TNF-α production [1]: can block the interaction between LPS and low concentrations of LPS-binding protein

HBD3: human β defensin cited from the literature (GIINTLQKYYCRVRGGRCAVLSCLPKEEQIGKCSTRGRKCCRRKK; ends and bridges not checked; cysteine pairing not given here; UniProt P81534 23-67, looked up)
conformation in SDS micelles [2]: adopts a α-helical-containing structure | function without disulfide bonds (bacteria): can function well without disulfide bonds

Polymyxin B [PB, reference compound]
effect on the interaction between LPS and LBP [3]: significantly inhibited the LPS-LBP interaction
